Laboratory results from the NIST ThermoML archive (doi:10.1016/j.jct.2009.04.015).
“And” between values parts separate entries of the source, which are not always exact repeats. Equal values may be shown once. Numbers after ± are expanded uncertainties.

Details: Crystal, Calculated from knudsen effusion weight loss

## Cc1ccc(O)cc1O [1,3-benzenediol, 4-methyl-]
317.2 K
  vapor or sublimation pressure: 0.000134 ± 7e-06 kPa and 0.000129 ± 7e-06 kPa and 0.000128 ± 6e-06 kPa
319.22 K
  vapor or sublimation pressure: 0.000175 ± 9e-06 kPa and 0.00017 ± 9e-06 kPa and 0.000166 ± 8e-06 kPa
321.11 K
  vapor or sublimation pressure: 0.00022 ± 1.1e-05 kPa and 0.000215 ± 1.1e-05 kPa and 0.000211 ± 1.1e-05 kPa
323.21 K
  vapor or sublimation pressure: 0.000266 ± 1.3e-05 kPa and 0.000262 ± 1.3e-05 kPa and 0.000282 ± 1.4e-05 kPa
325.23 K
  vapor or sublimation pressure: 0.000361 ± 1.8e-05 kPa and 0.000344 ± 1.7e-05 kPa and 0.000336 ± 1.7e-05 kPa
327.13 K
  vapor or sublimation pressure: 0.000451 ± 2.3e-05 kPa and 0.000438 ± 2.2e-05 kPa and 0.000432 ± 2.2e-05 kPa
329.21 K
  vapor or sublimation pressure: 0.000572 ± 2.9e-05 kPa and 0.000562 ± 2.8e-05 kPa and 0.000561 ± 2.8e-05 kPa
331.21 K
  vapor or sublimation pressure: 0.000742 ± 3.7e-05 kPa and 0.000724 ± 3.6e-05 kPa and 0.000719 ± 3.6e-05 kPa
333.12 K
  vapor or sublimation pressure: 0.000933 ± 4.7e-05 kPa and 0.000916 ± 4.6e-05 kPa and 0.000886 ± 4.4e-05 kPa

## Cc1c(O)cccc1O [1,3-dihydroxy-2-methylbenzene]
309.22 K
  vapor or sublimation pressure: 0.000109 ± 6e-06 kPa and 0.000107 ± 5e-06 kPa and 0.000103 ± 5e-06 kPa
311.2 K
  vapor or sublimation pressure: 0.000141 ± 7e-06 kPa and 0.000136 ± 7e-06 kPa and 0.000132 ± 7e-06 kPa
313.12 K
  vapor or sublimation pressure: 0.000176 ± 9e-06 kPa and 0.000172 ± 9e-06 kPa and 0.000171 ± 9e-06 kPa
315.21 K
  vapor or sublimation pressure: 0.000224 ± 1.1e-05 kPa and 0.000217 ± 1.1e-05 kPa and 0.000227 ± 1.1e-05 kPa
317.12 K
  vapor or sublimation pressure: 0.000287 ± 1.4e-05 kPa and 0.00028 ± 1.4e-05 kPa and 0.000276 ± 1.4e-05 kPa
319.2 K
  vapor or sublimation pressure: 0.000358 ± 1.8e-05 kPa and 0.00035 ± 1.8e-05 kPa and 0.000341 ± 1.7e-05 kPa
321.19 K
  vapor or sublimation pressure: 0.000456 ± 2.3e-05 kPa and 0.000446 ± 2.2e-05 kPa and 0.000437 ± 2.2e-05 kPa
323.12 K
  vapor or sublimation pressure: 0.000578 ± 2.9e-05 kPa and 0.000559 ± 2.8e-05 kPa and 0.000553 ± 2.8e-05 kPa
325.21 K
  vapor or sublimation pressure: 0.000724 ± 3.6e-05 kPa and 0.000694 ± 3.5e-05 kPa and 0.000673 ± 3.4e-05 kPa
327.17 K
  vapor or sublimation pressure: 0.000896 ± 4.5e-05 kPa and 0.000883 ± 4.4e-05 kPa and 0.000851 ± 4.3e-05 kPa
329.11 K
  vapor or sublimation pressure: 0.001115 ± 0.00011 kPa and 0.001099 ± 0.00011 kPa and 0.001081 ± 0.00011 kPa

## Cc1cc(O)ccc1O [1,4-benzenediol, 2-methyl-]
325.21 K
  vapor or sublimation pressure: 0.000147 ± 7e-06 kPa and 0.000144 ± 7e-06 kPa and 0.000138 ± 7e-06 kPa
327.15 K
  vapor or sublimation pressure: 0.000189 ± 1e-05 kPa and 0.000182 ± 9e-06 kPa and 0.000173 ± 9e-06 kPa
329.11 K
  vapor or sublimation pressure: 0.000239 ± 1.2e-05 kPa and 0.000229 ± 1.2e-05 kPa and 0.000226 ± 1.1e-05 kPa
331.19 K
  vapor or sublimation pressure: 0.000292 ± 1.5e-05 kPa and 0.000277 ± 1.4e-05 kPa and 0.000298 ± 1.5e-05 kPa
333.14 K
  vapor or sublimation pressure: 0.000375 ± 1.9e-05 kPa and 0.000361 ± 1.8e-05 kPa and 0.000348 ± 1.7e-05 kPa
335.11 K
  vapor or sublimation pressure: 0.000481 ± 2.4e-05 kPa and 0.000462 ± 2.3e-05 kPa and 0.000448 ± 2.2e-05 kPa
337.2 K
  vapor or sublimation pressure: 0.00061 ± 3.1e-05 kPa and 0.000607 ± 3e-05 kPa and 0.000569 ± 2.9e-05 kPa
339.14 K
  vapor or sublimation pressure: 0.000751 ± 3.8e-05 kPa and 0.000731 ± 3.7e-05 kPa and 0.000704 ± 3.5e-05 kPa
341.12 K
  vapor or sublimation pressure: 0.000957 ± 4.8e-05 kPa and 0.000916 ± 4.6e-05 kPa and 0.00089 ± 4.5e-05 kPa

## Cc1cc(O)cc(O)c1 [5-methyl-1,3-benzenediol]
322.2 K
  vapor or sublimation pressure: 0.000157 ± 8e-06 kPa and 0.000153 ± 8e-06 kPa
324.16 K
  vapor or sublimation pressure: 0.000199 ± 1e-05 kPa and 0.000196 ± 1e-05 kPa and 0.000193 ± 1e-05 kPa
326.1 K
  vapor or sublimation pressure: 0.000246 ± 1.2e-05 kPa and 0.000245 ± 1.2e-05 kPa
328.2 K
  vapor or sublimation pressure: 0.000304 ± 1.5e-05 kPa and 0.000311 ± 1.6e-05 kPa and 0.000303 ± 1.5e-05 kPa
330.14 K
  vapor or sublimation pressure: 0.000394 ± 2e-05 kPa and 0.000383 ± 1.9e-05 kPa and 0.000378 ± 1.9e-05 kPa
332.1 K
  vapor or sublimation pressure: 0.000499 ± 2.5e-05 kPa and 0.000485 ± 2.4e-05 kPa and 0.000482 ± 2.4e-05 kPa
334.19 K
  vapor or sublimation pressure: 0.000607 ± 3e-05 kPa and 0.000596 ± 3e-05 kPa and 0.000591 ± 3e-05 kPa
336.13 K
  vapor or sublimation pressure: 0.000766 ± 3.8e-05 kPa and 0.000754 ± 3.8e-05 kPa and 0.000734 ± 3.7e-05 kPa
338.1 K
  vapor or sublimation pressure: 0.000974 ± 4.9e-05 kPa and 0.000935 ± 4.7e-05 kPa and 0.000932 ± 4.7e-05 kPa
